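Tested at 5 concentrations; 48 h exposure; 96-well plates; endpoints linearly interpolated, else capped at highest concentration. The concentration for 50% growth inhibition is given as GI50. Definition used: TGI = concentration required for complete inhibition of growth.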
Tests used:
Experiment in all cases: NCI tumour cell line growth inhibition, 48 h
[1] = system: 786-0 renal
[2] = system: A498 renal
[3] = system: A549 NSCLC
[4] = system: ACHN renal
[5] = system: BT-549 breast
[6] = system: CAKI-1 renal
[7] = system: CCRF-CEM leukemia
[8] = system: COLO 205 colon
[9] = system: DU-145 prostate
[10] = system: EKVX NSCLC
[11] = system: HCC-2998 colon
[12] = system: HCT-116 colon
[13] = system: HCT-15 colon
[14] = system: HL-60(TB) leukemia
[15] = system: HOP-62 NSCLC
[16] = system: HOP-92 NSCLC
[17] = system: HS 578T breast
[18] = system: HT29 colon
[19] = system: IGROV1 ovarian
[20] = system: K-562 leukemia
[21] = system: KM12 colon
[22] = system: LOX IMVI melanoma
[23] = system: M14 melanoma
[24] = system: MALME-3M melanoma
[25] = system: MCF7 breast
[26] = system: MDA-MB-231 breast
[27] = system: MDA-MB-435
[28] = system: MDA-MB-468 breast
[29] = system: MOLT-4 leukemia
[30] = system: NCI-H226 lung
[31] = system: NCI-H23 lung
[32] = system: NCI-H460 lung
[33] = system: NCI-H522 lung
[34] = system: NCI/ADR-RES ovarian
[35] = system: OVCAR-3 ovarian
[36] = system: OVCAR-4 ovarian
[37] = system: OVCAR-5 ovarian
[38] = system: OVCAR-8 ovarian
[39] = system: PC-3 prostate
[40] = system: RPMI-8226 leukemia
[41] = system: RXF 393 renal
[42] = system: SF-268 CNS
[43] = system: SF-295 CNS
[44] = system: SF-539 CNS
[45] = system: SK-MEL-2 melanoma
[46] = system: SK-MEL-28 melanoma
[47] = system: SK-MEL-5 melanoma
[48] = system: SK-OV-3 ovarian
[49] = system: SN12C renal
[50] = system: SNB-19 CNS
[51] = system: SNB-75 CNS
[52] = system: SR leukemia
[53] = system: SW-620 colon
[54] = system: T-47D breast
[55] = system: TK-10 renal
[56] = system: U251 CNS
[57] = system: UACC-257 melanoma
[58] = system: UACC-62 melanoma
[59] = system: UO-31 renal

Compound `COc1cc2c(c(OC)c1OC)C(=O)CC(c1cccc(NC(=O)c3cc(NC(=O)[C@H](C)N)ccc3Cl)c1)O2` (stereo partly drawn) has a GI50 [1] of 19.1 µM, a TGI [1] of 36.7 µM and a GI50 [2] of 26 µM. It also gave a TGI [2] of 90.5 µM, a GI50 [3] of 15.9 µM and a TGI [3] of 33.3 µM. The GI50 [4] was 15.9 µM, the TGI [4] was 31 µM and the GI50 [5] was 15 µM. The TGI [5] was 32 µM, the GI50 [6] was 32.7 µM and the TGI [6] was > 100 µM. For the same compound, the GI50 [7] was 18.5 µM, the TGI [7] was 65 µM and the GI50 [8] was 17.1 µM. It also gave a TGI [8] of 33.2 µM, a GI50 [9] of 17.5 µM and a TGI [9] of 34.5 µM. It also gave a GI50 [10] of 17.2 µM, a TGI [10] of 35 µM and a GI50 [11] of 16.9 µM. The TGI [11] was 31.3 µM, the GI50 [12] was 17.5 µM and the TGI [12] was 35.6 µM. The GI50 [13] was 12 µM, the TGI [13] was 26.9 µM and the GI50 [14] was 18.8 µM. For the same compound, the TGI [14] was 37.5 µM, the GI50 [15] was 15.1 µM and the TGI [15] was 30.6 µM. For the same compound, the GI50 [16] was 14.5 µM, the TGI [16] was 48.9 µM and the GI50 [17] was 20 µM. For the same compound, the TGI [17] was 59.3 µM, the GI50 [18] was 18.6 µM and the TGI [18] was 37.2 µM. It also gave a GI50 [19] of 16.6 µM, a TGI [19] of 32.9 µM and a GI50 [20] of 7.31 µM. For the same compound, the TGI [20] was 91.9 µM, the GI50 [21] was 19.3 µM and the TGI [21] was 37.9 µM. The GI50 [22] was 14.5 µM, the TGI [22] was 29.6 µM and the GI50 [23] was 15.5 µM. For the same compound, the TGI [23] was 32.6 µM, the GI50 [24] was 14.2 µM and the TGI [24] was 27.7 µM. It also gave a GI50 [25] of 12.9 µM, a TGI [25] of 26.8 µM and a GI50 [26] of 14.6 µM. For the same compound, the TGI [26] was 28.5 µM, the GI50 [27] was 7.81 µM and the TGI [27] was 21.4 µM. For the same compound, the GI50 [28] was 13.5 µM, the TGI [28] was 28.5 µM and the GI50 [29] was 11 µM. The TGI [29] was 34.6 µM, the GI50 [30] was 16.8 µM and the TGI [30] was 38.6 µM. It also gave a GI50 [31] of 15.6 µM, a TGI [31] of 31.2 µM and a GI50 [32] of 15.3 µM. For the same compound, the TGI [32] was 30.6 µM, the GI50 [33] was 11.3 µM and the TGI [33] was 26 µM. It also gave a GI50 [34] of 16.2 µM, a TGI [34] of 47 µM and a GI50 [35] of 17.5 µM. It also gave a TGI [35] of 46.7 µM, a GI50 [36] of 15.6 µM and a TGI [36] of 47 µM. For the same compound, the GI50 [37] was 18.3 µM, the TGI [37] was 34.6 µM and the GI50 [38] was 16.1 µM. It also gave a TGI [38] of 41.7 µM, a GI50 [39] of 17.2 µM and a TGI [39] of 69.5 µM. It also gave a GI50 [40] of 7.29 µM, a TGI [40] of 51.7 µM and a GI50 [41] of 18.6 µM. The TGI [41] was 37.1 µM, the GI50 [42] was 18 µM and the TGI [42] was 42.8 µM. The GI50 [43] was 16.3 µM, the TGI [43] was 29.9 µM and the GI50 [44] was 15.5 µM. For the same compound, the TGI [44] was 28.8 µM, the GI50 [45] was 14.8 µM and the TGI [45] was 33.2 µM. For the same compound, the GI50 [46] was 16.6 µM, the TGI [46] was 30.2 µM and the GI50 [47] was 15.5 µM. It also gave a TGI [47] of 29.4 µM, a GI50 [48] of 18.3 µM and a TGI [48] of 42.2 µM. It also gave a GI50 [49] of 14.1 µM, a TGI [49] of 30.9 µM and a GI50 [50] of 15.8 µM. It also gave a TGI [50] of 29.2 µM, a GI50 [51] of 13.3 µM and a TGI [51] of 65.1 µM. For the same compound, the GI50 [52] was 5.45 µM, the TGI [52] was 39.2 µM and the GI50 [53] was 15.7 µM. It also gave a TGI [53] of 30.2 µM, a GI50 [54] of 8.07 µM and a TGI [54] of 29 µM. For the same compound, the GI50 [55] was 19.8 µM, the TGI [55] was 42.7 µM and the GI50 [56] was 13.9 µM. It also gave a TGI [56] of 28 µM, a GI50 [57] of 14.4 µM and a TGI [57] of 29.5 µM. It also gave a GI50 [58] of 12.3 µM, a TGI [58] of 24.9 µM and a GI50 [59] of 12 µM. The TGI [59] was 24.7 µM.

From PubChem BioAssay (NCI)
